# Reference: ChEMBL document CHEMBL1201862, “PubChem BioAssay data set” (2004)
#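 48-hour exposure; five concentrations; linearly interpolated endpoints. At the GI50, growth is halved.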 Active and inactive are the calls of the source. Rule as the data show it: active = GI50 up to about 1.1 µM and inactive = higher.
# Legend:
# Assay in all cases: inhibition of tumour cell growth, NCI panel, 48 h
# TK-10 = system: TK-10
# NCI/ADR-RES = system: NCI/ADR-RES
# SF-539 = system: SF-539
# A498 = system: A498
# SK-MEL-2 = system: SK-MEL-2
# HCT-116 = system: HCT-116
# MDA-MB-435 = system: MDA-MB-435
# OVCAR-3 = system: OVCAR-3
# SNB-75 = system: SNB-75
# RXF 393 = system: RXF 393
# Hs-578T = system: Hs-578T
# COLO 205 = system: COLO 205
# DU-145 = system: DU-145
# SW-620 = system: SW-620
# NCI-H460 = system: NCI-H460
# K562 = system: K562
# MOLT-4 = system: MOLT-4
# HOP-62 = system: HOP-62
# HCT-15 = system: HCT-15
# NCI-H23 = system: NCI-H23
# UACC-62 = system: UACC-62
# OVCAR-8 = system: OVCAR-8
# UACC-257 = system: UACC-257
# NCI-H226 = system: NCI-H226
# CAKI-1 = system: CAKI-1
# MCF7 = system: MCF7
# ACHN = system: ACHN
# SK-MEL-28 = system: SK-MEL-28
# CCRF-CEM = system: CCRF-CEM
# Malme-3M = system: Malme-3M
# KM12 = system: KM12
# SF-295 = system: SF-295
# HT-29 = system: HT-29
# MDA-MB-231 = system: MDA-MB-231
# SF-268 = system: SF-268
# RPMI-8226 = system: RPMI-8226
# M14 = system: M14
# SK-OV-3 = system: SK-OV-3
# SK-MEL-5 = system: SK-MEL-5
# 786-0 = system: 786-0
# PC-3 = system: PC-3
# BT-549 = system: BT-549
# HCC 2998 = system: HCC 2998
# HL-60 = system: HL-60
# SN12C = system: SN12C
# A549 = system: A549
# OVCAR-5 = system: OVCAR-5
# U-251 = system: U-251
# OVCAR-4 = system: OVCAR-4
# NCI-H522 = system: NCI-H522
# SNB-19 = system: SNB-19
# MDA-N = system: MDA-N
# T47D = system: T47D
# IGROV-1 = system: IGROV-1
# EKVX = system: EKVX
# LOX IMVI = system: LOX IMVI
# HOP-92 = system: HOP-92
# SR = system: SR
# UO-31 = system: UO-31
# DMS-114 = system: DMS-114
# DMS-273 = system: DMS-273
# LXFL 529 = system: LXFL 529
# SNB-78 = system: SNB-78
# M19-MEL = system: M19-MEL
# DLD-1 = system: DLD-1
# XF498 = system: XF498
# KM-20L2 = system: KM-20L2
smiles,measurement,setting,value
CCCCCNC1=CC(=O)c2ccccc2C1=O,GI50,TK-10,30.2 µM (inactive)
same,GI50,NCI/ADR-RES,45.3 µM (inactive)
same,GI50,SF-539,20.6 µM (inactive)
same,GI50,A498,32.1 µM (inactive)
same,GI50,SK-MEL-2,21.6 µM (inactive)
same,GI50,HCT-116,22.9 µM (inactive)
same,GI50,MDA-MB-435,> 100 µM (inactive)
same,GI50,OVCAR-3,22.5 µM (inactive)
same,GI50,SNB-75,22.2 µM (inactive)
same,GI50,RXF 393,21.7 µM (inactive)
same,GI50,Hs-578T,27.8 µM (inactive)
same,GI50,COLO 205,79.6 µM (inactive)
same,GI50,DU-145,53.3 µM (inactive)
same,GI50,SW-620,> 100 µM (inactive)
same,GI50,NCI-H460,34.5 µM (inactive)
same,GI50,K562,> 100 µM (inactive)
same,GI50,MOLT-4,> 100 µM (inactive)
same,GI50,HOP-62,23.9 µM (inactive)
same,GI50,HCT-15,52.2 µM
same,GI50,NCI-H23,24.3 µM (inactive)
same,GI50,UACC-62,33.7 µM (inactive)
same,GI50,OVCAR-8,23 µM (inactive)
same,GI50,UACC-257,> 60.5 µM (inactive)
same,GI50,NCI-H226,31.6 µM (inactive)
same,GI50,CAKI-1,33.7 µM (inactive)
same,GI50,MCF7,> 72.3 µM (inactive)
same,GI50,ACHN,58.9 µM (inactive)
same,GI50,SK-MEL-28,> 100 µM (inactive)
same,GI50,CCRF-CEM,> 100 µM (inactive)
same,GI50,Malme-3M,34.5 µM (inactive)
same,GI50,KM12,> 100 µM (inactive)
same,GI50,SF-295,26.3 µM (inactive)
same,GI50,HT-29,69.2 µM (inactive)
same,GI50,MDA-MB-231,19.4 µM (inactive)
same,GI50,SF-268,25.1 µM (inactive)
same,GI50,RPMI-8226,> 91.8 µM (inactive)
same,GI50,M14,> 62.4 µM (inactive)
same,GI50,SK-OV-3,> 51.4 µM (inactive)
same,GI50,SK-MEL-5,17.9 µM (inactive)
same,GI50,786-0,18.4 µM (inactive)
same,GI50,PC-3,37.6 µM (inactive)
same,GI50,BT-549,19.5 µM (inactive)
same,GI50,HCC 2998,> 78.2 µM (inactive)
same,GI50,HL-60,18.5 µM (inactive)
same,GI50,SN12C,49.9 µM (inactive)
same,GI50,A549,42.8 µM (inactive)
same,GI50,OVCAR-5,> 100 µM (inactive)
same,GI50,U-251,17.5 µM (inactive)
same,GI50,OVCAR-4,59.7 µM (inactive)
same,GI50,NCI-H522,19.7 µM (inactive)
same,GI50,SNB-19,24.3 µM (inactive)
same,GI50,MDA-N,> 100 µM (inactive)
same,GI50,T47D,27.5 µM (inactive)
same,GI50,IGROV-1,33.2 µM (inactive)
same,GI50,EKVX,> 58.9 µM (inactive)
same,GI50,LOX IMVI,22.6 µM (inactive)
same,GI50,HOP-92,17.4 µM (inactive)
same,GI50,SR,46.6 µM (inactive)
same,GI50,UO-31,> 51.6 µM (inactive)
C/C(CC(=O)Nc1cc(C)ccc1C)=N/N=C(N)N,GI50,DMS-114,> 100 µM (inactive)
same,GI50,TK-10,> 100 µM (inactive)
same,GI50,SF-539,> 100 µM (inactive)
same,GI50,A498,> 100 µM (inactive)
same,GI50,SK-MEL-2,> 100 µM (inactive)
same,GI50,DMS-273,> 100 µM (inactive)
same,GI50,HCT-116,> 100 µM (inactive)
same,GI50,LXFL 529,> 100 µM (inactive)
same,GI50,OVCAR-3,> 100 µM (inactive)
same,GI50,SNB-75,> 100 µM (inactive)
same,GI50,RXF 393,> 100 µM (inactive)
same,GI50,SNB-78,> 100 µM (inactive)
same,GI50,COLO 205,> 100 µM (inactive)
same,GI50,SW-620,> 100 µM (inactive)
same,GI50,NCI-H460,> 100 µM (inactive)
same,GI50,K562,> 100 µM (inactive)
same,GI50,MOLT-4,> 100 µM (inactive)
same,GI50,HOP-62,> 100 µM (inactive)
same,GI50,NCI-H23,> 100 µM (inactive)
same,GI50,UACC-62,> 100 µM (inactive)
same,GI50,OVCAR-8,> 100 µM (inactive)
same,GI50,UACC-257,> 100 µM (inactive)
same,GI50,NCI-H226,> 100 µM (inactive)
same,GI50,ACHN,> 100 µM (inactive)
same,GI50,SK-MEL-28,> 100 µM (inactive)
same,GI50,CCRF-CEM,> 100 µM (inactive)
same,GI50,Malme-3M,> 100 µM (inactive)
same,GI50,KM12,> 100 µM (inactive)
same,GI50,SF-295,> 100 µM (inactive)
same,GI50,M19-MEL,> 100 µM (inactive)
same,GI50,HT-29,> 100 µM (inactive)
same,GI50,SF-268,> 100 µM (inactive)
same,GI50,RPMI-8226,> 100 µM (inactive)
same,GI50,M14,> 100 µM (inactive)
same,GI50,SK-OV-3,> 100 µM (inactive)
same,GI50,SK-MEL-5,> 100 µM (inactive)
same,GI50,786-0,> 100 µM (inactive)
same,GI50,HCC 2998,> 100 µM (inactive)
same,GI50,HL-60,> 100 µM (inactive)
same,GI50,DLD-1,> 100 µM (inactive)
same,GI50,A549,> 100 µM (inactive)
same,GI50,OVCAR-5,> 100 µM (inactive)
same,GI50,XF498,> 100 µM (inactive)
same,GI50,U-251,> 100 µM (inactive)
same,GI50,NCI-H522,> 100 µM (inactive)
same,GI50,IGROV-1,> 100 µM (inactive)
same,GI50,EKVX,> 100 µM (inactive)
same,GI50,LOX IMVI,> 100 µM (inactive)
same,GI50,HOP-92,> 100 µM (inactive)
same,GI50,KM-20L2,> 100 µM (inactive)
same,GI50,UO-31,> 100 µM (inactive)
N#CC12CC3=C(N=C1NC1=C(CCc4ccccc41)C2)c1ccccc1CC3 (centres undefined),GI50,TK-10,4.61 µM (inactive)
same,GI50,NCI/ADR-RES,2.97 µM (inactive)
same,GI50,SF-539,2.53 µM (inactive)
same,GI50,A498,1.8 µM (inactive)
same,GI50,SK-MEL-2,4.39 µM (inactive)
same,GI50,HCT-116,1.95 µM (inactive)
same,GI50,MDA-MB-435,0.278 µM (active)
same,GI50,OVCAR-3,0.538 µM (active)
same,GI50,SNB-75,1.64 µM (inactive)
same,GI50,RXF 393,3.4 µM (inactive)
same,GI50,Hs-578T,4.83 µM (inactive)
same,GI50,COLO 205,1.73 µM (inactive)
same,GI50,DU-145,3.97 µM (inactive)
same,GI50,SW-620,0.871 µM (active)
same,GI50,NCI-H460,3.06 µM (inactive)
same,GI50,K562,0.317 µM (active)
same,GI50,MOLT-4,1.72 µM (inactive)
same,GI50,HOP-62,5.37 µM (inactive)
same,GI50,HCT-15,1.76 µM
same,GI50,NCI-H23,3.18 µM (inactive)
same,GI50,UACC-62,2.82 µM (inactive)
same,GI50,OVCAR-8,3.24 µM (inactive)
same,GI50,UACC-257,17.6 µM (inactive)
same,GI50,NCI-H226,3.73 µM (inactive)
same,GI50,CAKI-1,3.8 µM (inactive)
same,GI50,MCF7,0.594 µM (active)
same,GI50,ACHN,6.59 µM (inactive)
same,GI50,SK-MEL-28,4.06 µM (inactive)
same,GI50,CCRF-CEM,0.745 µM (active)
same,GI50,Malme-3M,1.71 µM (inactive)
same,GI50,KM12,0.938 µM (active)
same,GI50,SF-295,0.984 µM (active)
same,GI50,HT-29,0.533 µM (active)
same,GI50,MDA-MB-231,4.16 µM (inactive)
same,GI50,SF-268,3.3 µM (inactive)
same,GI50,RPMI-8226,0.993 µM (active)
same,GI50,M14,2.76 µM (inactive)
same,GI50,SK-OV-3,2.67 µM (inactive)
same,GI50,SK-MEL-5,3.74 µM (inactive)
same,GI50,786-0,3.42 µM (inactive)
same,GI50,PC-3,2.12 µM (inactive)
same,GI50,BT-549,9.29 µM (inactive)
same,GI50,HCC 2998,1.74 µM (inactive)
same,GI50,HL-60,0.323 µM (active)
same,GI50,SN12C,5.15 µM (inactive)
same,GI50,A549,3.32 µM (inactive)
same,GI50,OVCAR-5,4.22 µM (inactive)
same,GI50,U-251,1.58 µM (inactive)
same,GI50,OVCAR-4,7.55 µM (inactive)
same,GI50,NCI-H522,1.23 µM (inactive)
same,GI50,SNB-19,3.95 µM (inactive)
same,GI50,MDA-N,0.258 µM (active)
same,GI50,T47D,6.67 µM (inactive)
same,GI50,IGROV-1,1.44 µM (inactive)
same,GI50,EKVX,4.67 µM (inactive)
same,GI50,LOX IMVI,1.42 µM (inactive)
same,GI50,HOP-92,2.72 µM (inactive)
same,GI50,SR,0.255 µM (active)
same,GI50,UO-31,3.45 µM (inactive)
